Measured values: US20230150951A1, “2,5- OR 2,6-DISUBSTITUTED HYDROQUINONE DERIVATIVES WITH AT LEAST ONE CARBOXY, SULFO OR AMIDO GROUP USEFUL AS MEDICAMENTS” (OM PHARMA SA, priority 2020, published 2023)
Where two headings read alike, the source gives them in different places.

Tests used:
Assay type in all cases: cell-based
[1] = test system: TNF-beta; assay: Cytokine release after LPS induction on human whole blood: TNFβ
Method: (§1) Aim of this in vitro method is to assess compounds effects on release of a panel of cytokines from whole blood following lipopolysaccharide (LPS) induced inflammatory reaction. Whole blood was incubated with compounds for 1 h prior to LPS induction. Cytokine levels in blood were measured using a multiplex FACS-based panel.
(§2) IC50 values determined for the tested compounds expressed in microM [μM] and the values for the inhibition of cytokines were listed for each compound.
(§3) Effect on cytokines release after LPS induction was performed on the compounds dissolved in DMSO or H2O to reach 10-fold concentrated stock solutions and dissolved in culture media.
(§4) Test system: Whole blood was removed from a single donor (into lithium heparin coated tubes; BD Vacutainer; 367886) and diluted 1:5 with RPMI 1640 (Thermo Fisher, 61870036). Within 30 minutes of sampling, blood was incubated with compounds for 1 h prior to LPS stimulation (O111:B4—Sigma L4391; 10 ng/ml final concentration). Stimulation continued under standard cell culture conditions (37° C. with 5% CO2) overnight (18 h), after which plates were centrifuged and supernatant removed and frozen at −80° C. until used for analyses.
(§5) Dilution of test compounds: 10×concentrated solutions (concerning to the final assay concentrations) of each test compound were prepared with the appropriate solvent (in DMSO or in water). These 10× compound solutions (10 μl) were then added to 90 μl pre-diluted whole blood (whole blood: RPMI1640, 1:5) resulting in the final assay concentration.
(§6) Test method: Diluted whole blood (80 μl) was pre-incubated with compounds (10 μl) to give final assay concentrations of 100, 30, 10, 3, 1, 0.3 and 0.1×10^−6M. Blood was incubated at 37° C. with 5% CO2 for 1 h. LPS was diluted in cell culture media to a concentration of […]; 10 μl was added to the whole blood to give a final concentration of 10 ng/ml. Plates were incubated at 37° C. for 18 h. Plates were centrifuged at 3,000 RPM for 5 minutes at 4° C. and supernatant removed and frozen at −80° C. until FACS analysis was carried out.
(§7) Cytokine release was measured using a custom multiplex system (ELISA Genie) according to manufacturers instructions. Prepared samples were run on an Attune NxT flow cytometer (Thermo Fisher).
(§8) Quantification of cytokine release inhibition: known concentration standards were run as part of the cytokine panel to allow quantification of each cytokine concentration in each sample. This was carried out using FCAP Array v3.0 software.
(§9) Results: The dose response relationship on cytokine release following LPS induction of inflammatory response in whole blood was assessed for all compounds. IC50 values were determined for each compound for a panel of cytokines (GM-CSF, IFN-gamma, IL-1beta, IL-2, IL-4, IL-5, IL-6, IL-8, IL-9, IL-10, IL-12p40, IL-13, IL-17A, IL-17F, IL-18, IL-21, IL-22, IL-33, TGF-beta, TNF-alpha, TNF-beta).

[2] = test system: IL-13; assay: Cytokine release after LPS induction on human whole blood: IL-13
Method: as §1, §2, §3, §4, §5, §6, §7, §8, §9

[3] = test system: IL-2; assay: Cytokine release after LPS induction on human whole blood: IL-2
Method: as §1, §2, §3, §4, §5, §6, §7, §8, §9

[4] = test system: IL-4; assay: Cytokine release after LPS induction on human whole blood: IL-4
Method: as §1, §2, §3, §4, §5, §6, §7, §8, §9

[5] = test system: IL-18; assay: Cytokine release after LPS induction on human whole blood: IL-18
Method: as §1, §2, §3, §4, §5, §6, §7, §8, §9

[6] = test system: IL-17F; assay: Cytokine release after LPS induction on human whole blood: IL-17F
Method: as §1, §2, §3, §4, §5, §6, §7, §8, §9

[7] = biological target: T1, VEGFR-2 (Homo sapiens, UniProt P35968); assay: VEGF-165 induced phosphorylation of VEGF-Receptor on HUVEC; details: HUVEC preincubated 60 min, VEGF165 25 ng/mL 2 min; read-out: VEGFR-Phosphorylation inhibition IC50
T1 construct: endogenous in cells; host or cells: primary HUVEC

[8] = Homo sapiens, LPS 10 ng/ml, 18 h, read-out: Whole Blood: TNF β IC50
[9] = human whole blood, inhibition of LPS induced inflammation, read-out: IC50 β
[10] = Homo sapiens, LPS 10 ng/ml, 18 h, read-out: Whole Blood: IL-13 IC50
[11] = human whole blood, inhibition of LPS induced inflammation, read-out: IC50 IL-13
[12] = Homo sapiens, LPS 10 ng/ml, 18 h, read-out: Whole Blood: IL-2 IC50
[13] = human whole blood, inhibition of LPS induced inflammation, read-out: IC50 IL-2
[14] = Homo sapiens, LPS 10 ng/ml, 18 h, read-out: Whole Blood: IL-4 IC50
[15] = human whole blood, inhibition of LPS induced inflammation, read-out: IC50 IL-4
[16] = Homo sapiens, LPS 10 ng/ml, 18 h, read-out: Whole Blood: IL-18 IC50
[17] = human whole blood, inhibition of LPS induced inflammation, read-out: IC50 IL-18
[18] = Homo sapiens, LPS 10 ng/ml, 18 h, read-out: Whole Blood: IL-17F IC50
[19] = human whole blood, inhibition of LPS induced inflammation, read-out: IC50 IL-17F

T1 sequence (P35968 20-1356): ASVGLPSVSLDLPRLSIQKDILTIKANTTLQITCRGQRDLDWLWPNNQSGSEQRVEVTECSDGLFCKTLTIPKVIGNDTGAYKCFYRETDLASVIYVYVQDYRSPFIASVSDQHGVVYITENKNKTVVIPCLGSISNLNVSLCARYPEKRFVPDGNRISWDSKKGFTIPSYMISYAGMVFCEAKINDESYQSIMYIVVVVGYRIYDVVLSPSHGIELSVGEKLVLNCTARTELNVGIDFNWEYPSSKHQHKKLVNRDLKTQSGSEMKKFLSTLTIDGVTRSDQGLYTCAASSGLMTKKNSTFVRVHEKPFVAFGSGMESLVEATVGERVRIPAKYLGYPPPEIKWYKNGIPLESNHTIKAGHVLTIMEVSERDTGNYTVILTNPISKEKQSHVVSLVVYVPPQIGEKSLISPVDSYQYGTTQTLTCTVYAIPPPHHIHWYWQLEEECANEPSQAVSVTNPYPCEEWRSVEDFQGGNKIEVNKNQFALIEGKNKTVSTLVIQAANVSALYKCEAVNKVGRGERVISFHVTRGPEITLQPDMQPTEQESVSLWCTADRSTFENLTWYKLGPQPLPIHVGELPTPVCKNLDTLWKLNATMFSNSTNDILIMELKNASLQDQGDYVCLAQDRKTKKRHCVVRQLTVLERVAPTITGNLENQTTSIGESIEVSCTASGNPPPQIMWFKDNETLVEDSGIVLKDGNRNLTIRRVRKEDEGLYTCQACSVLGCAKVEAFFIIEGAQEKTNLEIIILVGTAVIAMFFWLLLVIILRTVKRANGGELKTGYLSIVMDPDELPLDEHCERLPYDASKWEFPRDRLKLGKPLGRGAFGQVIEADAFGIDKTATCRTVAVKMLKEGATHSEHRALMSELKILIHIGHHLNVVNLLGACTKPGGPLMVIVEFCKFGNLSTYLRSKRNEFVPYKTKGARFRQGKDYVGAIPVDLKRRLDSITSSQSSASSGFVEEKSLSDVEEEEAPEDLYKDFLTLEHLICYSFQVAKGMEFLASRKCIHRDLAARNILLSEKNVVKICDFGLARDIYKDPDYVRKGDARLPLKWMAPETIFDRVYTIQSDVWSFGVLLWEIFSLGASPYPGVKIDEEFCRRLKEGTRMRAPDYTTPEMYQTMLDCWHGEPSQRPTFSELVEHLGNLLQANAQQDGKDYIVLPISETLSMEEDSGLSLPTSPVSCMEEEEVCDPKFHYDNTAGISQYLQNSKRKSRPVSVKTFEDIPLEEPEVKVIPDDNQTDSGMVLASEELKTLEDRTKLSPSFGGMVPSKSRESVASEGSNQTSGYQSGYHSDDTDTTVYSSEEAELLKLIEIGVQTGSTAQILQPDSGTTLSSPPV

SMILES | IC50 [1, 8] [µM] | IC50 [1, 9] [µM] | IC50 [2, 10] [µM] | IC50 [2, 11] [µM] | IC50 [3, 12] [µM] | IC50 [3, 13] [µM] | IC50 [4, 14] [µM] | IC50 [4, 15] [µM] | IC50 [5, 16] [µM] | IC50 [5, 17] [µM] | IC50 [6, 18] [µM] | IC50 [6, 19] [µM] | IC50 [7] [µM] | further results
O=C(O)c1cc(O)c(C(=O)Nc2ccccc2C(=O)O)cc1O [Ia-001a, 4-(2-carboxyphenylaminocarbonyl)-2,5-dihydroxybenzoic acid] | 13.2 | 13.2 | 26.4 | 26.4 | 94.3 | 94.3 | > 100 | 100 | > 100 | 100 | 14.7 | 14.7 | 2.25 | 
O=C(O)c1cc(O)ccc1NC(=O)c1cc(O)cc(C(=O)Nc2ccc(O)cc2C(=O)O)c1O [IIc-009a, 2-(3-(2-carboxy-4-hydroxyphenylaminocarbonyl)-2,5-dihydroxybenzamido)-5-hydroxyl benzoic acid] | 6.94 | 6.94 | 0.13 | 0.13 | 19.6 | 19.6 | > 100 | 100 | 2.95 | 2.95 | 0.13 | 0.13 | 1.7 | 
O=C(O)c1ccccc1CNC(=O)c1cc(O)cc(C(=O)O)c1O [IIa-053a, 3-(2-Carboxyphenylmethylaminocarbonyl)-2,5-dihydroxybenzoic acid] | 91.5 | 91.5 | 29.9 | 29.9 | 1.67 | 1.67 | > 100 | 100 | > 100 | 100 | 28.8 | 28.8 | 0.27 | 
O=C(O)c1cc(NC(=O)c2cc(O)cc(C(=O)Nc3ccc(O)c(C(=O)O)c3)c2O)ccc1O [IIc-007a, 5-(3-(3-carboxy-4-hydroxyphenylaminocarbonyl)-2,5-dihydroxybenzamido)-2-hydroxy benzoic acid] | 0.29 | 0.29 | 0.25 | 0.25 | 12.8 | 12.8 | > 100 | 100 | > 100 | 100 | 0.26 | 0.26 | 0.44 | 
CC(=O)N(Cc1cc(O)c(C(=O)O)cc1O)Cc1cc(O)c(C(=O)O)cc1O [IIIc-057a, N,N-Bis(4-carboxy-2,5-dihydroxyphenylmethyl)acetamide] | 1.58 | 1.58 | 4.73 | 4.73 | 24.2 | 24.2 | > 100 | 100 | > 100 | 100 | 5.06 | 5.06 | 0.2 | 
O=C(O)c1cc(O)c(C(=O)Nc2ccccc2S(=O)(=O)O)cc1O [Ia-001c, 2,5-dihydroxy-4-(2-sulfophenylaminocarbonyl)benzoic acid] | 29.7 | 29.7 | 86.1 | 86.1 | 12.8 | 12.8 | > 100 | 100 | > 100 | 100 | 89.7 | 89.7 | 3.31 | 
O=C(O)c1cc(O)c(CN(Cc2cc(O)c(C(=O)O)cc2O)Cc2cc(O)c(C(=O)O)cc2O)cc1O [IIIc-061a, Tris(4-carboxy-2,5-dihydroxyphenylmethyl)amine] | 0.81 | 0.81 | 0.31 | 0.31 | > 100 | 100 | > 100 | 100 | 32.4 | 32.4 | 0.32 | 0.32 | 4.3 | 
O=C(O)c1cc(NC(=O)c2cc(O)c(C(=O)Nc3ccccc3-c3nnn[nH]3)cc2O)ccc1O [Ic-001a-Tz/004a, 5-(4-(2-(1H-tetrazol-5-yl)phenylaminocarbonyl)-2,5-dihydroxybenzamido)-2-hydroxy benzoic acid] |  |  |  |  |  |  |  |  |  |  |  |  | 2.6 | IC50 ([1]; Homo sapiens): 3.02 µM; IC50 ([1]; Homo sapiens, 18 h, read-out: Whole Blood: TNF β IC50): 3.02 µM; IC50 ([2]; Homo sapiens, 18 h, read-out: Whole Blood: IL-13 IC50): 1.5 µM; IC50 ([2]; Homo sapiens, read-out: IC50 IL-13): 1.5 µM; IC50 ([3]; Homo sapiens, 18 h, read-out: Whole Blood: IL-2 IC50): 4.91 µM; IC50 ([3]; Homo sapiens, read-out: IC50 IL-2): 4.91 µM; IC50 ([4]; Homo sapiens, 18 h, read-out: Whole Blood: IL-4 IC50): > 100 µM; IC50 ([4]; Homo sapiens, read-out: IC50 IL-4): 100 µM; IC50 ([5]; Homo sapiens, 18 h, read-out: Whole Blood: IL-18 IC50): 46.6 µM; IC50 ([5]; Homo sapiens, read-out: IC50 IL-18): 46.6 µM; IC50 ([6]; Homo sapiens, 18 h, read-out: Whole Blood: IL-17F IC50): 2.4 µM; IC50 ([6]; Homo sapiens, read-out: IC50 IL-17F): 2.4 µM
O=C(O)c1cc(NC(=O)c2cc(O)c(C(=O)O)cc2O)cc(C(=O)O)c1 [Ia-015a, 5-(4-carboxy-2,5-dihydroxybenzamido)isophthalic acid] | 0.3 | 0.3 | 0.15 | 0.15 | 7.08 | 7.08 | > 100 | 100 | > 100 | 100 | 0.15 | 0.15 | 0.15 | 
